Measured values as given in patent US6352960B1, “Controlling agent for agricultural or horticultural bacterial disease” (Meiji Seika Kaisha, Ltd., priority 1998, dated 2002).
Structures can show the parent of a compound that is named as a salt.

Key:
[1] = test system: Japanese apricot canker bacterium (Pseudomonas syringae pv. morsprunorum); assay: in vitro antibacterial test on PDA culture medium; type: cell-based; design: key to growth of bacteria: +++: Colonies grew well; ++: Growth was slightly suppressed; +: Growth was strongly suppressed but proliferation was observed; −: No proliferation was observed; details: for growth of bacteria: 21° C., after 3 days
Experimental: (§1) Each agent was dissolved in sterilized water and added to PDA culture medium (Nissui Seiyaku Co., Ltd.) and Japanese apricot canker bacterium (Pseudomonas syringae pv. morsprunorum), vegetables' soft rot disease bacterium (Erwinia carotovora sub-sp. cartovora), and citrus canker bacterium (Xanthomonas campestris pv. citri) were inoculated.
(§2) The Japanese apricot canker bacterium was cultivated at 21° C., the vegetables' soft rot disease bacterium and citrus canker bacterium were cultivated at 28° C. After 3 days from the start of cultivation, the growth of bacteria was monitored.

[2] = test system: citrus canker bacterium (Xanthomonas campestris pv. citri); assay: in vitro antibacterial test on PDA culture medium; type: cell-based; design: key to growth of bacteria: +++: Colonies grew well; ++: Growth was slightly suppressed; +: Growth was strongly suppressed but proliferation was observed; −: No proliferation was observed; details: for growth of bacteria: 28° C., after 3 days
Experimental: as §1, §2

[3] = test system: vegetables' soft rot disease bacterium (Erwinia carotovora sub-sp. cartovora); assay: in vitro antibacterial test on PDA culture medium; type: cell-based; design: key to growth of bacteria: +++: Colonies grew well; ++: Growth was slightly suppressed; +: Growth was strongly suppressed but proliferation was observed; −: No proliferation was observed; details: for growth of bacteria: 28° C., after 3 days
Experimental: as §1, §2

[4] = test system: Japanese apricot bacterial canker; assay: Controlling effect on Japanese apricot bacterial canker (1), field trees, spray; type: in vivo; details: sprayed four times at 10-day intervals
Experimental: (§3) Preventive value=(1−disease severity of treated lot/disease severity of non-treated lot)×100
Commercially available Agrepto wettable powder containing 25% of streptomycin sulfate (20% as streptomycin) or commercially available Iminoctadine ABS salt [trade name: Bellkute wettable powder (40%)] was diluted to a predetermined concentration and tested. Also, the preparation produced according to Preparation Example 2 was diluted to a predetermined concentration and tested.
Young 5-year old Japanese apricot trees which frequently suffered from Japanese apricot bacterial canker in the preceding year, were tested. Predetermined agents were continually sprayed four times with intervals of 10 days starting from early April. In May, the disease severity of Japanese apricot bacterial canker was searched on 100 fruits per tree for total 5 trees in each lot and the results were evaluated by 5-rank indices.
The damaged fruits were searched and disease severity and preventive value were calculated using the indices and equation below.
2: Medium=6 to 15 lesions
6: Extreme=31 or more lesions or with cracks
Disease severity=Σ(Index×The number of damaged fruits per degree)÷(6×The number of tested fruits)×100

[5] = test system: Japanese apricot canker bacterium (Pseudomonas syringae pv. morsprunorum); assay: Controlling effect on Japanese apricot bacterial canker (2), potted seedlings, spray inoculation; type: in vivo; details: leaf spray before inoculation, after 7 days
Experimental: as §3
Japanese apricot seedlings rested for the winter season in the open field were cut to the height of 60 cm and transplanted to 1/5000 a Wagner pots and allowed to sprout and develop leaves in a greenhouse were tested. After giving fine bruises to the leaves with Carborandum, water was sprayed sufficiently to flow away the Carborandum. After air drying, the agents diluted to predetermined concentrations with water were sprayed onto the leaves, which were air dried again. Japanese apricot canker bacterium (Pseudomonas syringae pv. morsprunorum) preliminarily cultivated in PPG medium (200 g of potato, 3 g of disodium phosphate (dodecahydrate), 0.5 g of dikalium phosphate, 5 g of peptone, 3 g of sodium chloride, 5 g of glucose, 1 L of distilled water) was inoculated by spraying together with the medium. The inoculated plants were placed under controlled humid conditions (temperature 20° C., humidity 99% to 100%) for 40 hours and then transferred to a greenhouse to allow the disease to emerge. After 7 days, the lesion area in each lot was measured and disease severity and preventive value were calculated according to the following indices.
1: Several lesions on the leaves of one branch;
2: The damaged area was less than ¼ of the total area of the leaves on one branch;
3: The damaged area was from ¼ to less than ½ of the total area of the leaves on one branch;
4: The damaged area was from ½ to less than ⅔ of the total area of the leaves on one branch; and
5: The damaged area was ⅔ or more of the total area of the leaves on one branch.
Disease severity=Σ(Index×The number of data)÷(Total number of data×5)×100

[6] = test system: citrus canker bacterium (Xanthomonas campestris pv. citri); assay: Controlling effect on citrus canker, pot-grown Watson pomelo leaves; type: in vivo; details: 20 leaves, after 1 month
Experimental: as §3
(§4) (Disease severity may be replaced by degree of damage or ratio of damage.)
Commercially available Agrepto wettable powder containing 25% of streptomycin sulfate (20% as streptomycin) or commercially available Iminoctadine ABS salt [trade name: Bellkute wettable powder (40%)] was diluted to a predetermined concentration and tested. The preparations produced according to Preparation Examples 2 and 4 were also diluted to predetermined concentrations. 20 new leaves of pot-grown Watson pomelo were tested for each of the preparations. After wounding the leaves with a needle, each predetermined agent solution was sprayed thereon and the leaves were air dried. Then, citrus canker bacterium (Xanthomonas campestris pv. citri) was inoculated with the density of 1×10^6 cells. Thereafter, the trees were put into controlled cultivation in a greenhouse. After 1 month, the emergence of citrus canker was investigated.

[7] = test system: Celery cabbage soft rot; assay: Controlling effect on Celery cabbage soft rot, field test; type: in vivo; details: sprayed 3 times at 7-day intervals
Experimental: as §3, §4
Commercially available Agrepto wettable powder containing 25% of streptomycin sulfate (20% as streptomycin) or commercially available Iminoctadine ABS salt [trade name: Bellkute wettable powder (40%)] was diluted to a predetermined concentration and tested. The preparations produced according to Preparation Examples 1 and 3 were also diluted to predetermined concentrations. In early August, Celery cabbages were sown in 5.2 m^2 per lot in triplicate. From 20 September when the plant reached 10-leaf stage, the predetermined agents were continually sprayed 3 times with intervals of 7 days. In late October, the disease severity and degree of damage of Celery cabbage soft rot were investigated using 4-rank indices.
1: Only a portion of outer leaves damaged;
2: A portion of outer leaves and head portion damaged; and
3: Most part of head portion damaged.
Degree of damage=Σ(Index×the number of individuals)÷(the number of individuals searched×3)×100

[8] = test system: genus Xanthomonas; details: from Japanese Patent Publication No. Sho 43-27335; cited from earlier work
[9] = test system: genus Pseudomonas; details: from Japanese Patent Publication No. Sho 43-27335; cited from earlier work

N=C(N)NCCCCCCCCNCCCCCCCCNC(=N)N [Iminoctadine ABS salt, bis(8-guanidinooctyl)amine]
growth of bacteria ([1]; 1 ppm in PDA medium): +++ | growth of bacteria ([1]; 10 ppm in PDA medium): +++ | growth of bacteria ([1]; 100 ppm in PDA medium): ++ | suppression of growth in vitro ([1]; even added at 100 ppm): did not suppress the growth | growth of bacteria ([2]; 1 ppm in PDA medium): +++ | growth of bacteria ([2]; 10 ppm in PDA medium): +++ | growth of bacteria ([2]; 100 ppm in PDA medium): +++ | suppression of growth in vitro ([2]; even added at 100 ppm): did not suppress the growth | growth of bacteria ([3]; 1 ppm in PDA medium): +++ | growth of bacteria ([3]; 10 ppm in PDA medium): +++ | growth of bacteria ([3]; 100 ppm in PDA medium): +++ | suppression of growth in vitro ([3]; even added at 100 ppm): did not suppress the growth | Disease severity ([4]; 200 ppm): 1.2 | Preventive value ([4]; 200 ppm): 68 | The number of damaged fruits ([4]; 200 ppm): 18 | Disease severity ([5]; 200 ppm): 19 | Preventive value ([5]; 200 ppm): 73 | Preventive value ([6]; 50 ppm): 55 | Ratio of suffering leaves ([6]; 50 ppm): 45 | The number of suffering leaves ([6]; 50 ppm): 9 | Preventive value ([6]; 100 ppm): 75 | Ratio of suffering leaves ([6]; 100 ppm): 25 | The number of suffering leaves ([6]; 100 ppm): 5 | Preventive value ([6]; 400 ppm): 85 | Ratio of suffering leaves ([6]; 400 ppm): 15 | The number of suffering leaves ([6]; 400 ppm): 3 | Degree of damage ([7]; 200 ppm): 6.4 | Preventive value ([7]; 200 ppm): 71 | The number of individuals damaged ([7]; 200 ppm): 12

CCn1cc(C(=O)O)c(=O)c2cc3c(cc21)OCO3 [Oxolinic acid, oxolinic acid]
growth of bacteria ([1]; 1 ppm in PDA medium): ++ | growth of bacteria ([1]; 10 ppm in PDA medium): − | growth of bacteria ([2]; 1 ppm in PDA medium): +++ | growth of bacteria ([2]; 10 ppm in PDA medium): ++ | growth of bacteria ([3]; 1 ppm in PDA medium): − | growth of bacteria ([3]; 10 ppm in PDA medium): − | Degree of damage ([7]; 100 ppm): 3.3 | Preventive value ([7]; 100 ppm): 85 | The number of individuals damaged ([7]; 100 ppm): 4

[H]/N=C(/N)N[C@H]1[C@H](O)[C@@H](O)[C@H](O[C@@H]2O[C@@H](C)[C@](O)(C=O)[C@H]2O[C@@H]2O[C@@H](CO)[C@H](O)[C@@H](O)[C@@H]2NC)[C@@H](N/C(N)=N\[H])[C@@H]1O [Streptomycin sulfate, streptomycin sulfate]
growth of bacteria ([1]; 1 ppm in PDA medium): ++ | growth of bacteria ([1]; 10 ppm in PDA medium): + | growth of bacteria ([1]; 100 ppm in PDA medium): − | growth of bacteria ([2]; 1 ppm in PDA medium): ++ | growth of bacteria ([2]; 10 ppm in PDA medium): + | growth of bacteria ([2]; 100 ppm in PDA medium): − | growth of bacteria ([3]; 1 ppm in PDA medium): + | growth of bacteria ([3]; 10 ppm in PDA medium): − | growth of bacteria ([3]; 100 ppm in PDA medium): − | Disease severity ([4]; 125 ppm): 1.6 | Preventive value ([4]; 125 ppm): 57 | The number of damaged fruits ([4]; 125 ppm): 23 | Disease severity ([5]; 125 ppm): 24 | Preventive value ([5]; 125 ppm): 67 | Preventive value ([6]; 62.5 ppm): 60 | Ratio of suffering leaves ([6]; 62.5 ppm): 40 | The number of suffering leaves ([6]; 62.5 ppm): 8 | Preventive value ([6]; 125 ppm): 80 | Ratio of suffering leaves ([6]; 125 ppm): 20 | The number of suffering leaves ([6]; 125 ppm): 4 | Preventive value ([6]; 500 ppm): 95 | Ratio of suffering leaves ([6]; 500 ppm): 5 | The number of suffering leaves ([6]; 500 ppm): 1 | Degree of damage ([7]; 125 ppm): 4.6 | Preventive value ([7]; 125 ppm): 79 | The number of individuals damaged ([7]; 125 ppm): 10

N=C(N)NCCCCCCCCNCCCCCCCCNC(=N)N.O=S(=O)(O)O [bis (8-guanidiooctyl) amine sulfate]
in vitro antibacterial activity against plant pathogenic bacteria [8]: no activity | in vitro antibacterial activity against plant pathogenic bacteria [9]: no activity

N=C(N)NCCCCCCCCCCNCCCCCCCCCCNC(=N)N.O=S(=O)(O)O [bis (10-guanidinodecyl) amine sulfate]
in vitro antibacterial activity against plant pathogenic bacteria [8]: revealed to have in vitro antibacterial activity | in vitro antibacterial activity against plant pathogenic bacteria [9]: revealed to have in vitro antibacterial activity

Cl.N=C(N)NCCCCCCCCCCCCNCCCCCCCCCCCCNC(=N)N [bis (12-guanidinododecyl) amine hydrochloride]
in vitro antibacterial activity against plant pathogenic bacteria [8]: revealed to have in vitro antibacterial activity | in vitro antibacterial activity against plant pathogenic bacteria [9]: revealed to have in vitro antibacterial activity
